Reference: publication PMC6277767, “Broad and Region-Specific Impacts of the Synthetic Cannabinoid CP 55,940 in Adolescent and Adult Female Mouse Brains” (Frontiers in Molecular Neuroscience, 2018)

System: CD1 female mouse brain lipidome
Test: Brain-region lipid levels (HPLC/MS/MS lipidomics) 2 h after single i.p. 3 mg/kg CP 55,940 vs vehicle
Type: in vivo
Description: The Bloomington Institutional Animal Care and Use Committee of Indiana University reviewed and approved the animal procedures. Female mice from the CD1 strain were utilized to match our study examining THC’s effects on the brain lipidome ([Leishman et al., 2018]). Mice were given a single i.p. injection of either 3 mg/kg CP or 1:1:18 cremophor:ethanol:saline vehicle (please refer to the section “3 mg/kg CP Is Relevant for Synthetic Cannabinoid Abuse and Has Stronger Effects on the Female Mouse Brain Lipidome During Adolescence” for a justification of dose and use of female mice). Three different age groups were given injections: PND 35 and PND 50 adolescents, and adult mice (PND 113). At least eight mice in each age group received CP and at least eight received vehicle. Matching the THC study time course ([Leishman et al., 2018]), mice were sacrificed via rapid decapitation 2 h after injection. Brains were immediately removed and flash-frozen in liquid nitrogen, and then stored at -80°C until dissections were performed. Brains were dissected on an ice-cold dissection plate into the following regions: STR, HIPP, CER, THAL, CTX, HYP, MID, and STEM. These abbreviations for these brain areas will be used exclusively when discussing the results generated by these specific dissections. Each dissected area was immediately placed in liquid nitrogen and then stored at -80°C until used for lipid extraction.
Tissue extracts were performed as previously described ([Bradshaw et al., 2006]; [Stuart et al., 2013]; [Raboune et al., 2014]; [Leishman et al., 2016a],[b], [2017], [2018]). First, samples were shock frozen in liquid nitrogen, weighed, and transferred to a centrifuge tube. The mass of the largest sample was multiplied by 50 to determine how many milliliters of HPLC-grade methanol (Fisher, Fair Lawn, NJ, United States) to add. Then, samples were spiked with 500 pmol deuterium-labeled NAGly (d8NAGly; Cayman Chemical, Ann Arbor, MI, United States). Samples were placed on ice in darkness for 2 h then individually homogenized and centrifuged at 19,000 × g for 20 min at 20°C. Supernatants were diluted with HPLC water (purified in house) to make a solution of 75% water, 25% supernatant. Lipids were partially purified on C18 solid phase extraction columns (Agilent, Palo Alto, CA, United States). A series of four elutions with 1.5 mL of 60%, 75%, 85%, and 100% methanol were collected ([Stuart et al., 2013]; [Leishman et al., 2016a],[b], [2018]).
As previously described ([Bradshaw et al., 2006]; [Tan et al., 2006]; [Smoum et al., 2010]; [Stuart et al., 2013]; [Tortoriello et al., 2013]; [Raboune et al., 2014]; [Leishman et al., 2016a],[b], [2017], [2018]), samples were analyzed using an Applied Biosystems API 3000 triple quadrupole mass spectrometer with electrospray ionization (Foster City, CA, United States). Using an Agilent XDB-C18 reversed phase analytical column and optimized mobile phase gradients, 20 μL from each elution were chromatographed. Two Shimadzu 10ADvp pumps (Columbia, MD, United States) provided the pressure for gradient elution. Mobile phase A: 20% methanol, 80% water (v/v) and 1 mM ammonium acetate (Sigma, St. Louis, MO, United States). Mobile phase B: 100% methanol, 1 mM ammonium acetate. Every method run began with 0% mobile phase B, reached 100% mobile phase B flowing at 0.2 mL/min, and gradually returned to 0% mobile phase B.
This screening library will be referred to as the lipidome when discussing data from this study. HPLC/MS/MS data were analyzed using Analyst software (Applied Biosystems) ([Bradshaw et al., 2006]; [Tan et al., 2006]; [Stuart et al., 2013]; [Tortoriello et al., 2013]; [Raboune et al., 2014]; [Leishman et al., 2016a],[b], [2017], [2018]). Chromatograms (Supplementary Figure 3) were generated by determining the retention time of analytes from the analytical column with a [M-1] or [M+1] parent peak and a fragmentation peak corresponding to the programmed values. […]

Question: Which results are given for `CCCCCCC(C)(C)c1ccc([C@@H]2C[C@H](O)CC[C@H]2CCCO)c(O)c1` [CP 55,940]?
Answer: N-stearoyl leucine mean level (PND 35 striatum): 9.98E-13 moles per gram; N-stearoyl methionine mean level (PND 35 striatum): 1.31E-12 moles per gram; N-stearoyl phenylalanine mean level (PND 35 striatum): 1.28E-12 moles per gram; N-stearoyl serine mean level (PND 35 striatum): 1.89E-11 moles per gram; N-stearoyl tryptophan mean level (PND 35 striatum): 5.77E-13 moles per gram; Oleic acid mean level (PND 35 striatum): 1.18E-09 moles per gram; PGE2 mean level (PND 35 striatum): 3.74E-10 moles per gram; PGF2α mean level (PND 35 striatum): 2.8E-10 moles per gram; PhosphoLEA mean level (PND 35 striatum): 1.91E-11 moles per gram; total changes in lipid levels across the eight regions (PND 50): 141; changes in lipid levels that were decreases (PND 50, eight regions): 110; 2-linoleoyl glycerol level vs vehicle (PND 50 CER): ↓↓ (1.50-1.99 times lower than vehicle); 2-oleoyl glycerol level vs vehicle (PND 50 CER): ↓ (1-1.49 times lower than vehicle); 2-palmitoyl glycerol level vs vehicle (PND 50 CER): ↓ (1-1.49 times lower than vehicle); 6-ketoPGF1α level vs vehicle (PND 50 CER): ↑ (1-1.49 times higher than vehicle); Arachidonic acid level vs vehicle (PND 50 CER): ↓ (1-1.49 times lower than vehicle); Linoleic acid level vs vehicle (PND 50 CER): ↓ (1-1.49 times lower than vehicle); N-arachidonoyl GABA level vs vehicle (PND 50 CER): ↓ (1-1.49 times lower than vehicle); N-arachidonoyl ethanolamine level vs vehicle (PND 50 CER): ↓ (1-1.49 times lower than vehicle); N-arachidonoyl glycine level vs vehicle (PND 50 CER): ↓ (1-1.49 times lower than vehicle); N-arachidonoyl phenylalanine level vs vehicle (PND 50 CER): ↓↓ (1.50-1.99 times lower than vehicle); N-arachidonoyl serine level vs vehicle (PND 50 CER): ↓ (1-1.49 times lower than vehicle); N-arachidonoyl taurine level vs vehicle (PND 50 CER): ↓ (1-1.49 times lower than vehicle); N-arachidonoyl tyrosine level vs vehicle (PND 50 CER): ↓ (1-1.49 times lower than vehicle); N-docosahexaenoyl phenylalanine level vs vehicle (PND 50 CER): ↓ (1-1.49 times lower than vehicle); N-linoleoyl ethanolamine level vs vehicle (PND 50 CER): ↓ (1-1.49 times lower than vehicle); N-oleoyl GABA level vs vehicle (PND 50 CER): ↓ (1-1.49 times lower than vehicle); N-oleoyl ethanolamine level vs vehicle (PND 50 CER): ↓ (1-1.49 times lower than vehicle); N-oleoyl phenylalanine level vs vehicle (PND 50 CER): ↑ (1-1.49 times higher than vehicle); N-palmitoyl leucine level vs vehicle (PND 50 CER): ↑↑ (1.50-1.99 times higher than vehicle); N-palmitoyl valine level vs vehicle (PND 50 CER): ↑ (1-1.49 times higher than vehicle); Oleic Acid level vs vehicle (PND 50 CER): ↓ (1-1.49 times lower than vehicle); PGE2 level vs vehicle (PND 50 CER): ↓ (1-1.49 times lower than vehicle); PGF2α level vs vehicle (PND 50 CER): ↓ (1-1.49 times lower than vehicle); 2-linoleoyl glycerol level vs vehicle (PND 50 CTX): ↓ (1-1.49 times lower than vehicle); 2-oleoyl glycerol level vs vehicle (PND 50 CTX): ↓ (1-1.49 times lower than vehicle); Arachidonic acid level vs vehicle (PND 50 CTX): ↓ (1-1.49 times lower than vehicle); Linoleic acid level vs vehicle (PND 50 CTX): ↓↓ (1.50-1.99 times lower than vehicle); N- stearoyl valine level vs vehicle (PND 50 CTX): ↑ (1-1.49 times higher than vehicle); N-arachidonoyl GABA level vs vehicle (PND 50 CTX): ↓ (1-1.49 times lower than vehicle); N-arachidonoyl alanine level vs vehicle (PND 50 CTX): ↓ (1-1.49 times lower than vehicle); N-arachidonoyl ethanolamine level vs vehicle (PND 50 CTX): ↓ (1-1.49 times lower than vehicle); N-arachidonoyl phenylalanine level vs vehicle (PND 50 CTX): ↓ (1-1.49 times lower than vehicle); N-arachidonoyl taurine level vs vehicle (PND 50 CTX): ↓ (1-1.49 times lower than vehicle); N-docosahexaenoyl ethanolamine level vs vehicle (PND 50 CTX): ↓ (1-1.49 times lower than vehicle); N-linoleoyl ethanolamine level vs vehicle (PND 50 CTX): ↓ (1-1.49 times lower than vehicle); N-oleoyl ethanolamine level vs vehicle (PND 50 CTX): ↓↓ (1.50-1.99 times lower than vehicle); N-oleoyl serine level vs vehicle (PND 50 CTX): ↑ (1-1.49 times higher than vehicle); N-palmitoyl leucine level vs vehicle (PND 50 CTX): ↑ (1-1.49 times higher than vehicle); N-palmitoyl methionine level vs vehicle (PND 50 CTX): ↑ (1-1.49 times higher than vehicle); N-palmitoyl phenylalanine level vs vehicle (PND 50 CTX): ↑ (1-1.49 times higher than vehicle); N-palmitoyl tyrosine level vs vehicle (PND 50 CTX): ↑ (1-1.49 times higher than vehicle); N-palmitoyl valine level vs vehicle (PND 50 CTX): ↑ (1-1.49 times higher than vehicle); N-stearoyl phenylalanine level vs vehicle (PND 50 CTX): ↑ (1-1.49 times higher than vehicle); PGE2 level vs vehicle (PND 50 CTX): ↓ (1-1.49 times lower than vehicle); 2-linoleoyl glycerol level vs vehicle (PND 50 HIPP): ↓ (1-1.49 times lower than vehicle); 6-ketoPGF1α level vs vehicle (PND 50 HIPP): ↑ (1-1.49 times higher than vehicle); Linoleic acid level vs vehicle (PND 50 HIPP): ↓ (1-1.49 times lower than vehicle); N-arachidonoyl alanine level vs vehicle (PND 50 HIPP): ↓ (1-1.49 times lower than vehicle); N-arachidonoyl ethanolamine level vs vehicle (PND 50 HIPP): ↓↓ (1.50-1.99 times lower than vehicle); N-arachidonoyl glycine level vs vehicle (PND 50 HIPP): ↓↓ (1.50-1.99 times lower than vehicle); N-arachidonoyl serine level vs vehicle (PND 50 HIPP): ↓↓ (1.50-1.99 times lower than vehicle); N-arachidonoyl taurine level vs vehicle (PND 50 HIPP): ↓ (1-1.49 times lower than vehicle); N-arachidonoyl tyrosine level vs vehicle (PND 50 HIPP): ↑ (1-1.49 times higher than vehicle); N-docosahexaenoyl ethanolamine level vs vehicle (PND 50 HIPP): ↓ (1-1.49 times lower than vehicle); N-linoleoyl ethanolamine level vs vehicle (PND 50 HIPP): ↓↓ (1.50-1.99 times lower than vehicle); N-linoleoyl serine level vs vehicle (PND 50 HIPP): ↑ (1-1.49 times higher than vehicle); N-oleoyl leucine level vs vehicle (PND 50 HIPP): ↓ (1-1.49 times lower than vehicle); N-oleoyl serine level vs vehicle (PND 50 HIPP): ↑ (1-1.49 times higher than vehicle); PGE2 level vs vehicle (PND 50 HIPP): ↑ (1-1.49 times higher than vehicle); PGF2α level vs vehicle (PND 50 HIPP): ↑ (1-1.49 times higher than vehicle); 2-arachidonoyl glycerol level vs vehicle (PND 50 HYP): ↓ (1-1.49 times lower than vehicle); N-arachidonoyl phenylalanine level vs vehicle (PND 50 HYP): ↓ (1-1.49 times lower than vehicle); N-palmitoyl leucine level vs vehicle (PND 50 HYP): ↑ (1-1.49 times higher than vehicle); PGF2α level vs vehicle (PND 50 HYP): ↑ (1-1.49 times higher than vehicle); number of lipids changed (PND 50 HYP, 49 detected): four; 2-linoleoyl glycerol level vs vehicle (PND 50 MID): ↓ (1-1.49 times lower than vehicle); 2-oleoyl glycerol level vs vehicle (PND 50 MID): ↓ (1-1.49 times lower than vehicle); 6-ketoPGF1α level vs vehicle (PND 50 MID): ↓ (1-1.49 times lower than vehicle); Linoleic acid level vs vehicle (PND 50 MID): ↓ (1-1.49 times lower than vehicle); N-arachidonoyl GABA level vs vehicle (PND 50 MID): ↓ (1-1.49 times lower than vehicle); N-arachidonoyl alanine level vs vehicle (PND 50 MID): ↓↓ (1.50-1.99 times lower than vehicle); N-arachidonoyl ethanolamine level vs vehicle (PND 50 MID): ↓ (1-1.49 times lower than vehicle); N-arachidonoyl glycine level vs vehicle (PND 50 MID): ↓↓ (1.50-1.99 times lower than vehicle); N-arachidonoyl methionine level vs vehicle (PND 50 MID): ↓↓ (1.50-1.99 times lower than vehicle); N-arachidonoyl phenylalanine level vs vehicle (PND 50 MID): ↓ (1-1.49 times lower than vehicle); N-arachidonoyl tyrosine level vs vehicle (PND 50 MID): ↓ (1-1.49 times lower than vehicle); N-docosahexaenoyl GABA level vs vehicle (PND 50 MID): ↓ (1-1.49 times lower than vehicle); N-docosahexaenoyl ethanolamine level vs vehicle (PND 50 MID): ↓ (1-1.49 times lower than vehicle); N-docosahexaenoyl leucine level vs vehicle (PND 50 MID): ↑ (1-1.49 times higher than vehicle); N-linoleoyl ethanolamine level vs vehicle (PND 50 MID): ↓ (1-1.49 times lower than vehicle); N-oleoyl ethanolamine level vs vehicle (PND 50 MID): ↓ (1-1.49 times lower than vehicle); N-oleoyl methionine level vs vehicle (PND 50 MID): ↓↓ (1.50-1.99 times lower than vehicle); N-palmitoyl alanine level vs vehicle (PND 50 MID): ↓ (1-1.49 times lower than vehicle); N-palmitoyl ethanolamine level vs vehicle (PND 50 MID): ↓ (1-1.49 times lower than vehicle); N-palmitoyl leucine level vs vehicle (PND 50 MID): ↑ (1-1.49 times higher than vehicle); N-palmitoyl serine level vs vehicle (PND 50 MID): ↓ (1-1.49 times lower than vehicle); N-stearoyl methionine level vs vehicle (PND 50 MID): ↓ (1-1.49 times lower than vehicle); N-stearoyl phenylalanine level vs vehicle (PND 50 MID): ↓ (1-1.49 times lower than vehicle); Oleic Acid level vs vehicle (PND 50 MID): ↓ (1-1.49 times lower than vehicle); PGE2 level vs vehicle (PND 50 MID): ↓ (1-1.49 times lower than vehicle); PGF2α level vs vehicle (PND 50 MID): ↓ (1-1.49 times lower than vehicle)
